How the values were obtained:
Osteoblasts (hFOB 1.19) [1] = assay: In vitro calcification of osteoblasts, Alizarin Red S staining; assay type: cell-based, human; conditions: OS + 2.5 μM vs OS, 21 days; p=0.86
Protocol: (§1) Osteoblasts (from human fetus, hFOB 1.19, ATCC, CRL-11372) were cultured and grown in DMEM containing 10% v/v bovine calf serum and 1% v/v penicillin-streptomycin. Osteoblasts (passage 4-6) were harvested using 0.25% trypsin-EDTA solution (Caisson Labs, TRL01), seeded with a density of 5,200 cell.cm^−2, and incubated for 24 hours at 37° C. and 5% CO2 with controlled humidity. The cells were treated in three groups of control, OS, and OS supplemented with tyrphostin AG1478 (2.5 μM) for 21 days and media changed every three days. […] Similar to the VSMC experiments, EV-free media were added to the cultures on days 6, 13, and 20, and collected 24 hours later on days 7, 14, and 21. Collected media were centrifuged at 1,000×g for 5 min to remove cell debris. EVs were isolated using the ultracentrifugation at 100,000×g for 1 hour.
At the end of experiments (28 and 21 days of treatment on VSMCs and osteoblasts, respectively), media were removed, and the cells were fixed using Formalin (10%, Fisher Chemical, SF100). To visualize in vitro calcification, Alizarin Red S stain (ARS, Ricca, 500-32) was added to the wells and incubated for 30 min at room temperature. […]
To quantify the in vitro calcification, ARS stain was extracted using acetic acid (1.67 M, Fisher Chemical, A38S) on a shaker. […] Sample absorbance of 405 nm was measured using a multi-mode reader (BioTek, Synergy HTX).

Osteoblasts (hFOB 1.19) [2] = assay: Osteoblast osteogenic gene expression, intracellular TNAP activity and CAV1; assay type: cell-based, human; conditions: 7 days
Protocol: as §1
Following 7 or 14 days of treatment with control, OS, and OS plus EGFR inhibitor media, VSMCs and osteoblasts were lysed in 1 mL TRIzol solution (Invitrogen, 15596018). Total RNA was isolated according to the manufacturer's protocol. To perform the quantitative real time polymerase chain reaction (qRT-PCR), Power SYBR Green RNA-to-CT 1-Step Kit (Applied Biosystems, 4391178) was used. 50 ng isolated template RNA were added to each reaction for qRT-PCR. The results were normalized relative to Glyceraldehyde 3-phosphate dehydrogenase (GAPDH) expression level as the housekeeping control. The relative gene expression levels were calculated using comparative CT method, considering control groups as the reference.
The following human primer sequences were purchased from Integrated DNA Technologies (IDT); GAPDH Forward: […] (SEQ ID NO: 1) and Reverse: […] (SEQ ID NO: 2); RUNX2 Forward: […] (SEQ ID NO: 3) and Reverse: […] (SEQ ID NO: 4); ALPL Forward: […] (SEQ ID NO: 5) and Reverse: […] (SEQ ID NO: 6); Osteocalcin Forward: TCACACTCCTCGCCCTATT (SEQ ID NO: 7) and Reverse: […] (SEQ ID NO: 8).
To assess the activity of intracellular tissue non-specific alkaline phosphatase (TNAP), a colorimetric assay kit (BioVision, K412) was used. VSMCs (n=3) after 14 days and osteoblasts (n=3) after 7 days, were lysed in 120 μL assay buffer. 80 μL of each sample were mixed with 50 μL of 5 mM pNPP solution and incubated for 60 min at 25° C. The colorimetric change resulting from the reaction was detected using a plate reader to measure absorbance at 405 nm. The results were normalized to the total protein for associated samples measured by a BCA protein assay (BioVision, K813).
VSMCs, osteoblasts, isolated EVs (either from cells or mouse aortas), and matrix vesicles (from osteoblasts) were lysed in RIPA lysis and extraction buffer supplemented with protease inhibitor. After adding Laemmli SDS-sample buffer (1:4 v/v, Boston BioProducts, BP-110R) to each lysate, the samples were denatured at 100° C. for 10 min, loaded into 7.5-12% 1-mm SDS-PAGE gel (15 to 20 μg protein per lane), and run at 170 V. The proteins were then transferred to Trans-Blot turbo nitrocellulose membranes (BIO-RAD, 1704158) at 25 V for 7 min.
To quantify the total protein, the membranes were stained using 2% w/v Ponceau stain (Alfa Aesar, AAJ6074409) for 20 min, followed by one wash with 5% acetic acid and milliQ water for 5 min. After imaging, the intensity of each lane was measured in ImageJ for total protein normalization. Membranes were blocked with 5% w/v bovine serum albumin (HyClone, SH30574.01) in TBS-Tween (1×) for 1 hour. […]

[3] = system: Primary human coronary artery vascular smooth muscle cells; assay: VSMC extracellular matrix collagen (Sircol soluble collagen assay); assay type: cell-based; conditions: VSMCs, OS media, 2.5 μM, 28 days; p=0.10
Protocol: After 28 days of treatment, soluble collagen was extracted from the cultures using acetic acid (0.5 M) through overnight incubation at 4° C. A colorimetric assay, Sircol soluble collagen assay (Biocolor, S1000), measured the total soluble extracellular matrix (ECM) collagen in each group. Samples were prepared and assessed according to the manufacturer's protocol. Results were then normalized to the total protein measured using BCA assay.

SMILES: COc1cc2ncnc(Nc3cccc(Cl)c3)c2cc1OC [AG1478, tyrphostin AG1478]
- quantification of the in vitro calcification of osteoblasts (Alizarin red) (Osteoblasts (hFOB 1.19) [1]): no significant difference
- Gene expression of ALPL in osteoblasts (Osteoblasts (hFOB 1.19) [2]; OS + 2.5 μM vs OS, p=0.9): no significant differences
- Gene expression of Osteocalcin (BGLAP) in osteoblasts (Osteoblasts (hFOB 1.19) [2]; OS + 2.5 μM vs OS, p=0.9): no significant differences
- Gene expression of RUNX2 in osteoblasts (Osteoblasts (hFOB 1.19) [2]; OS + 2.5 μM): downregulation
- intracellular TNAP activity in osteoblasts (Osteoblasts (hFOB 1.19) [2]; OS + 2.5 μM): significantly increased
- intracellular CAV1 protein in osteoblasts (Osteoblasts (hFOB 1.19) [2]; OS + 2.5 μM, compared to control group, p=0.01): significantly increased
- ECM collagen accumulation [3]: did not affect
